Converted amounts (≈) assume the structure as drawn.
Key:
NC-37 [1] = assay: Cytotoxic concentration required to inhibit NC-37 cells by 50%; assay type: functional; conditions: Homo sapiens
NC-37 [2] = assay: Concentration required to reduce HSV-1 (KOS strain) induced cytopathogenicity in NC-37 cells; assay type: functional, cell-based; conditions: Homo sapiens

Row | SMILES | CC50 (NC-37 [1]) [µg/mL] | EC50 (NC-37 [2]) [µg/mL]
1 | C[C@H]1[C@H](O)[C@@H](CO)O[C@H]1n1cc(Br)c(=O)[nH]c1=O | > 100 | 11 (≈ 34.3 µM)
2 | C[C@H]1[C@H](O)[C@@H](CO)O[C@H]1n1cc(Cl)c(N)nc1=O | > 100 | > 100
3 | O=c1[nH]c(=O)n([C@@H]2O[C@H](CO)[C@@H](O)[C@@H]2F)cc1I [FIALURIDINE] | 6.7 (≈ 18 µM) | 0.06 (≈ 0.161 µM)
4 | C[C@H]1[C@H](O)[C@@H](CO)O[C@H]1n1cc(F)c(=O)[nH]c1=O | > 100 | > 100
5 | C[C@H]1[C@H](O)[C@@H](CO)O[C@H]1n1cc(I)c(=O)[nH]c1=O | > 100 | 0.14 (≈ 0.38 µM)
6 | O=c1[nH]c(=O)n([C@H]2C[C@H](O)[C@@H](CO)O2)cc1I [IDOXURIDINE] | 80 (≈ 226 µM) | > 80
7 | C[C@H]1[C@H](O)[C@@H](CO)O[C@H]1n1cc(I)c(N)nc1=O | > 100 | 4.8 (≈ 13.1 µM)
8 | Nc1nc2c(ncn2COCCO)c(=O)[nH]1 [ACYCLOVIR] | > 100 | 0.17 (≈ 0.755 µM)
9 | Nc1nc(=O)n([C@@H]2O[C@H](CO)[C@@H](O)[C@@H]2F)cc1I [FIACITABINE] | 63 (≈ 170 µM) | 0.1 (≈ 0.269 µM)
10 | C[C@H]1[C@H](O)[C@@H](CO)O[C@H]1n1cc(F)c(N)nc1=O | 0.22 (≈ 0.849 µM) | 0.22 (≈ 0.849 µM)
11 | C[C@H]1[C@H](O)[C@@H](CO)O[C@H]1n1cc(Br)c(N)nc1=O | > 100 | > 100
12 | C[C@H]1[C@H](O)[C@@H](CO)O[C@H]1n1cc(Cl)c(=O)[nH]c1=O | > 100 | > 100

— ChEMBL document CHEMBL1152064, “Nucleosides and nucleotides. 128. (2S)-2-deoxy-2-C-methyl-5-iodouridine (SMIU) as a novel potent anti-herpes virus agent” (Bioorg Med Chem Lett, 1994)
